Laboratory results published in patent US20250346582A1, “SPLEEN TYROSINE KINASE INHIBITORS AND METHODS OF USE THEREOF” (THE BOARD OF TRUSTEES OF THE UNIVERSITY OF ILLINOIS, priority 2022, published 2025).

Assays:
[1] = test system: plasma membrane translocation of EGFP-Syk WT; test: Subcellular localization of EGFP-Syk WT in DT40 cells; type: cell-based, chicken; conditions: IgM stimulation
Protocol: DT40-Syk^−/− cells transfected with EGFP-Syk WT (or K220/K222A) and mCherry-mCherry-eMyoX-tPH were imaged under 100× magnification with a Nikon Eclipse Ti2 microscope using the NIS element software. For IgM stimulation, cells were dropped on the IgM-coated surface (10 ng/ml) covered with the imaging buffer (HBSS pH 7.4, 2 mM MgCl2, 1% FBS) and incubated for 10 min before imaging. Pearson's correlation coefficient (y) was calculated using Coloc 2, which is a Fiji's plugin for colocalization analysis. The plasma membrane was selected as the region of interest for calculation of the coefficient. Averages ±s.d.'s of γ values were calculated from triplicate determinations.

Syk-cSH2 = target: T1, Syk-cSH2 (Homo sapiens, UniProt P43405); test: Fluorescence quenching vesicle binding assay, Syk-cSH2; conditions: Table 2; Syk-cSH2 binding to POPC/POPS/PIP3/dabsyl-PE vesicles
T1 construct: polyhistidine (N); made in house; host or cells: Escherichia coli BL21 (DE3) pLysS
Protocol: (§1) The membrane-binding assay is based on fluorescence quenching of EGFP fused to a SH2 domain by a dark quencher containing lipid, dabsyl-PE, incorporated in lipid vesicles. The plate reader assay was performed using the Synergy™ Neo spectrofluorometer at 25° C. Nontreated black polystyrene 96-well plates (Corning) were used. Protein (10-50 nM) with the increasing concentration of vesicles with a given lipid composition in 20 mM Tris buffer, pH 7.4, containing 0.16 M NaCl was added to each row of wells and the EGFP fluorescence emission at 516 nm was measured with excitation set at 485 nm. Z′ factor for the assay system was determined as described^74. Imax and IC50 values of inhibitors were determined using the equation, I=Imax/(1+IC50/[I]) where I and [I] indicate % inhibition and inhibitor concentration, respectively. The average and standard deviation values were obtained from triplicate determinations.
(§2) We also optimized a recently developed fluorescence quenching-based lipid-binding assay^47 for high-throughput screening of these molecules for their inhibitory activity against the PIP3-SH2 interaction. Specifically, we expressed SH2 domains as EGFP-tagged proteins and directly quantified their membrane binding by monitoring the quenching of EGFP fluorescence emission intensity by a dark quencher-containing lipid, N-dimethylaminoazo-benzenesulfonyl-phosphatidylethanolamine (dabsyl-PE), incorporated in the vesicles. We then screened for compounds that inhibited binding of Syk-cSH2, BLNK-SH2, and PLCγ2-cSH2, respectively, to 1-palmitoyl-2-oleoyl-PC (POPC)/1-palmitoyl-2-oleoyl-PS (POPS)/PIP3/dabsyl-PE (67:20:3:10) vesicles while eliminating those that inhibit their non-specific binding to anionic POPC/POPS/dabsyl-PE (70:20:10) vesicles. The quality of the screening system was evaluated using 1% dimethylsulfoxide (DMSO) and 20 μM D-myo-inositol-1,3,4,5-tetraphosphate (IP4) as negative and positive controls, respectively. The clear separation of positive and negative control data and the average Z′-factor of 0.7 supported the robustness of our system for high-throughput screen of PIP3-SH2 interaction inhibitors.

BLNK-SH2 = target: T2, BLNK-SH2 (Homo sapiens, UniProt Q8WV28); test: Fluorescence quenching vesicle binding assay, BLNK-SH2; conditions: Table 2, BLNK-SH2 binding to POPC/POPS/PIP3/dabsyl-PE vesicles
T2 construct: All SH2 domain constructs were cloned into the pRSET-B vector; polyhistidine (N); made in house; host or cells: Escherichia coli BL21 (DE3) pLysS
T2 sequence (Q8WV28 346-453 limits assumed): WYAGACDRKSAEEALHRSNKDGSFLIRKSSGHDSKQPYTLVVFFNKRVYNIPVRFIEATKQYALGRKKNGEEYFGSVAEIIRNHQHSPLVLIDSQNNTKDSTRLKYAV
Protocol: as §1, §2

PLCγ2-cSH2 = target: T3, PLCγ2-cSH2 (Homo sapiens, UniProt P16885); test: Fluorescence quenching vesicle binding assay, PLCγ2-cSH2; conditions: Table 2; PLCγ2-cSH2 binding to POPC/POPS/PIP3/dabsyl-PE vesicles; read-out: Imax (%)
T3 construct: polyhistidine (N); made in house; host or cells: Escherichia coli BL21 (DE3) pLysS
T3 sequence (P16885 646-735 limits assumed): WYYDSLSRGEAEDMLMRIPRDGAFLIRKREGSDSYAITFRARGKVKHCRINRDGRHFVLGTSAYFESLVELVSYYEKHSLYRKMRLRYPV
Protocol: as §1, §2

[2] = test system: BCR signaling axis (Syk-BLNK-PLCγ2); test: Western blot of BCR signaling axis in Raji B lymphocytes; type: cell-based; conditions: Raji B cells
Protocol: (§3) Cells were seeded at a density of 3.0×10^5 cells/well prior to incubation with inhibitors. Cells were incubated with 1-5 μM of Syk inhibitors overnight and stimulated with different antibodies: IgG2 for AML cells, IgM for Raji B cells, and OKT3 (Biolegend) for Jurkat cells. The cells were lysed in NP40 lysis buffer (50 mM Tris, pH 7.5, 150 mM NaCl, 1 mM EDTA, 1% NP40, 10% glycerol, 10 mM NaF, 10 mM Na3VO4, and the protease inhibitor cocktail) at 4° C. and the cell debris was removed by centrifugation. Samples were analyzed by SDS-PAGE. Proteins were separated and transferred to Immobilon-P polyvinylidene difluoride membrane (Millipore Sigma). The membrane was blocked with 5% bovine serum albumin for 1 h and incubated overnight at 4° C. with various antibodies (1:1000 dilution for all antibodies). After the unbound antibodies were removed by washing with 0.1% Tris buffer saline with 0.1% Tween20, the membranes were incubated with the horseradish peroxidase secondary antibody (1:5000 dilution) for 1 h at room temperature. The membranes were washed three more times with 0.1% Tris buffer saline with 0.1% Tween20 to remove the unbound horseradish peroxidase secondary antibody before imaging. The chemiluminescence intensity of protein bands in the gel was analyzed and documented by the Azure 500Q Imaging System.

Syk [3] = target: T4, Syk (Homo sapiens, UniProt P43405); test: Streptavidin pull down assay with WC36B in MV4-11 cells; type: cell-based; conditions: MV4-11 cells, 5 μM for 24 h, immunoblotting
T4 construct: host or cells: MV4-11 AML cells (naive and entospletinib-resistant)
Protocol: (§4) Streptavidin-coated beads (Dynabeads™ M280 streptavidin beads; ThermoFisher) were washed twice with 1 ml of PBST (PBS+0.1% Tween 20) and resuspended in 100 μl of PBST. WC36B (or biotin) (10 mM) was added to 100 μl of the bead suspension and the mixture was incubated at room temperature for 15 min with gentle shaking. The mixture was then vortexed for 5 s and the tube was placed on a magnet for 1 min. After discarding the supernatant, the beads were resuspended in the same volume of the washing buffer. Washing is repeated three times to remove excess WC36B. WC36B-coated beads were then incubated with the cell lysate (MV-4-11) for 30 min at room temperature with gentle shaking. Protein-coated beads were separated with a magnet for 2-3 min and washed 4-5 times with PBS containing 0.1% BSA. The protein was then removed from the beads by boiling the beads in the SDS-polyacrylamide gel electrophoresis (PAGE) application buffer. Samples were concentrated for the mass spectrometry analysis and the western blot assay.

Syk [4] = target: T4, Syk; test: Mass spectrometry proteomics of WC36B-binding cellular proteins; type: cell-based; conditions: biotin as negative control
Protocol: as §4
MS analysis was performed to identify proteins captured by WC36B and biotin. […]

pZAP70 = target: T5, pZAP70 (Homo sapiens, UniProt P43403); test: Western blot inhibition of ZAP70 phosphorylation in Jurkat T cells; type: cell-based; conditions: Jurkat T cells stimulated by OKT3; 5 μM overnight
T5 construct: host or cells: Jurkat T cells, OKT3-stimulated
T5 sequence (P43403 1-619): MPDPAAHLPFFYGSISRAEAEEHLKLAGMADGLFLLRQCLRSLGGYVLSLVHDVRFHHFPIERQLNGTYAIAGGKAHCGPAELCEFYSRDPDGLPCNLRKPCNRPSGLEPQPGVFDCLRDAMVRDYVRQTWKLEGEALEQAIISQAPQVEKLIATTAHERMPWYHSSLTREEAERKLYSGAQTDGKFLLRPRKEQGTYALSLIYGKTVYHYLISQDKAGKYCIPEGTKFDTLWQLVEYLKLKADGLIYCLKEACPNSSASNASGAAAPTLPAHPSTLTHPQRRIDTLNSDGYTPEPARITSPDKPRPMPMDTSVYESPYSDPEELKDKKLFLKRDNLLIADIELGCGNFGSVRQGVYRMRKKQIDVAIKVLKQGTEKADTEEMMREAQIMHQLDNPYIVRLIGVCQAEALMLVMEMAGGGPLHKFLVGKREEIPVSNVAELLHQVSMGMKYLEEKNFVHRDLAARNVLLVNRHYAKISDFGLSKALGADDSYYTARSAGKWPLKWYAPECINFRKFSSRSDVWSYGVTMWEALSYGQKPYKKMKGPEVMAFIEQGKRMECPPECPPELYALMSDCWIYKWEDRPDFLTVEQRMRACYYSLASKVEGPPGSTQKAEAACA
Protocol: (a) Cellular efficacy of WC35, WC36, and WC38 was determined by dose-dependent inhibition of Syk phosphorylation in Raji B cells. (b) Imax and IC50 values were determined by non-linear least-squares analysis of data using the equation: […] Each data represents average ±s.d. from triplicate measurements. […] Jurkat T cells were stimulated by OKT3. Cells were seeded at a density of 3.0×10^5 cells/well prior to incubation with inhibitors. […] IgG2 for AML cells, IgM for Raji B cells, and OKT3 (Biolegend) for Jurkat cells. […] Samples were analyzed by SDS-PAGE. Proteins were separated and transferred to Immobilon-P polyvinylidene difluoride membrane (Millipore Sigma). […] The chemiluminescence intensity of protein bands in the gel was analyzed and documented by the Azure […] Imaging System.

[5] = test system: phosphorylation of Syk, ERK1/2 and STAT3/5; test: Western blot of phosphorylation in entospletinib-resistant MV4-11 cells; type: cell-based; conditions: 5 μM
Protocol: as §3
(§5) Then the concentration was maintained at 5 μM.

MV4-11 cells = test: Generation of drug-resistant MV4-11 cells under chronic treatment; type: cell-based; conditions: inhibitor increased from 0.5 to 5 μM over 10 weeks
Protocol: as §5

[6] = test system: phosphorylation of ERK1/2 and STAT3/5; test: Western blot of phosphorylation in HL60 cells; type: cell-based; conditions: RAS-mutated HL60 cells; 5 μM
Protocol: FIGS. 3A-3D show the inhibition of the signaling activity and proliferation of HL-60 AML cells by Syk-cSH2 inhibitors. […] DMSO was used as a negative control and GAPDH as a gel loading control. […] (c) Inhibition of phosphorylation of Syk, STAT3/5 and ERK1/2 in patient-derived primary AML cells by WC36. Cells were cultured overnight in the presence of CD34+ cytokine supplement. DMSO was used as a negative control. Representative data from one (Patient 1) of four patient samples are shown here. (d) Inhibition of the proliferation of four patient AML cells by WC36 measured by the colony growth assay. The number of colonies after WC36 treatment was normalized to the enumerated colonies after DMSO treatment.
as §3

`CS(=O)(=O)N1CCN(Cc2cc3nc(-c4cccc5[nH]ncc45)nc(N4CCOCC4)c3s2)CC1` [GDC-0941] was tested, and the “plasma membrane translocation of EGFP-Syk WT” value [1] was “greatly suppressed”.
In the case of `OCCc1c(Cl)cncc1I` [VG594], the “Imax (%)” value (Syk-cSH2) is reported as under 10%, the IC50 (BLNK-SH2) is reported as 400 ± 30 nM and the Emax (BLNK-SH2; read-out: Imax (%)) is reported as 40 to 50%. For the same compound, the Emax (PLCγ2-cSH2) was under 10% and the “effect on phosphorylation of BCR signaling proteins (Syk, BLNK, PLCγ2)” value [2] was “blocked the phosphorylation of BLNK and PLCγ2 without a significant effect on Syk phosphorylation”.
In the case of `[N-]=[N+]=C(C(=O)NCCNC(=O)CCCC[C@H]1SC[C@H]2NC(=O)N[C@H]21)C(Nc1ncccn1)c1c[nH]c2ccccc12` (stereo partly drawn) [WC36B, N-(2-(2-diazo-3-(1H-indol-3-yl)-3-(pyrimidin-2-ylamino)propanamido)ethyl)-5-((3aR,4R,6aS)-2-oxohexahydro-1H-thieno[3,4d]imidazol-4-yl)pentanamide], the “capture of Syk by streptavidin pulldown” value (Syk [3]) is reported as “targets Syk in MV4-11 cells” and the “proteins captured (proteomics)” value (Syk [4]) is reported as “Syk is the single major protein that is captured by the WC36 pharmacophore”.
`c1cn2cc(-c3ccc4cn[nH]c4c3)nc(Nc3ccc(N4CCOCC4)cc3)c2n1` [entospletinib, reference compound] was tested, and the “inhibition of ZAP-70 phosphorylation” value (pZAP70) was “significantly inhibited ZAP-70 phosphorylation”, the “inhibition of phosphorylation of Syk, ERK1/2 and STAT3/5” value [5] was “could not inhibit phosphorylation of ERK1/2 and STAT3/5 in resistant MV4-11 cells while still potently inhibiting Syk phosphorylation” and the “development of acquired resistance” value (MV4-11 cells) was “readily developing resistance to entospletinib”. The “inhibition of phosphorylation of ERK1/2 and STAT3/5” value [6] was “could not suppress phosphorylation of ERK1/2 and STAT3/5”.
